This test has as its target T1, ELIC (Dickeya chrysanthemi, UniProt P0C7B7).
T1 sequence (P0C7B7 1-321): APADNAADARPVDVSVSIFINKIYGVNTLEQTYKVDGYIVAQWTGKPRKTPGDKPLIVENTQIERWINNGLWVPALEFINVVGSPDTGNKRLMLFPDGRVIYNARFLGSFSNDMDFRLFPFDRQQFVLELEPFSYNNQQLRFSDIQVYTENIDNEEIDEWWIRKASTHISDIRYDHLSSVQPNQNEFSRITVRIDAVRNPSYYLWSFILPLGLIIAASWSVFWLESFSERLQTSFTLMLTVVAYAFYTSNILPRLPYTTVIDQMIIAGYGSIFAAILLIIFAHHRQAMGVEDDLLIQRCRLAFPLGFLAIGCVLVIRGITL
Kind of test: two-electrode voltage clamp in Xenopus oocytes; outside-out patch clamp of HEK-293T cells. The class given is cell-based. For orientation: Two-electrode voltage clamp is typically applied to oocytes expressing channels or transporters.

One may read the EC50 as the concentration that produces a half-maximal response. `NCCS` [CA, cysteamine] returned an EC50 of 10 ± 0.1 mM.

The record behind these values is paper PMC3833957, “Macroscopic Kinetics of Pentameric Ligand Gated Ion Channels: Comparisons between Two Prokaryotic Channels and One Eukaryotic Channel” (PLoS ONE, 2013).
